Results reported in patent US20250161409A1, “COMPOSITIONS FOR TREATING HYPERHIDROSIS” (PROSPERA BIOTECH, S.L., priority 2022, published 2025).
No end group written: not given here.

Experiments:
[1] = Attenuation of excessive sweating / hyperhidrosis (summary statements); assay type: in vivo
[2] = tested on: permeabilized chromaffin cells; assay: Inhibition of calcium-induced release of catecholamines in digitonin-permeabilized chromaffin cells; assay type: cell-based; details: 1 mM peptide
Description: The neuronal-exocytosis (neurosecretion) inhibiting capabilities of the known neuronal exocytosis inhibitors became evident through a test that evaluates the strength of said compounds in inhibiting the release of catecholamines induced by calcium in chromaffin cells permeabilized with the detergent digitonin, in accordance with the method described by Gutiérrez et al. (FEBS Lett 1995, 372, 39-43, and J. Biol. Chem. 1997, 272, 2634-2639); as well as an in vitro reconstitution test of the fusion complex (SNARE).
Briefly, the chromaffin cell cultures are incubated with [3 H]-epinephrine and [3 H]-norepinephrine, are permeabilized with 20 μM digitonin, and stimulated with calcium (10 μM), in the presence of the compounds to be tested, and the amount of radioactivity released by the cells to the extracellular medium, which is a reflection of the exocytosis of [3 H]-epinephrine and [3 H]-norepinephrine, is measured.

[3] = tested on: fusion protein complex (SNARE); assay: In vitro reconstitution (ELISA) of the fusion protein complex (SNARE); assay type: biochemical; details: peptide present during the assembly of the fusion complex
Experimental: An additional test of in vitro reconstitution was performed to determine the ability of the peptides to interfere with the formation and stability of the fusion complex (SNARE). The test consists of evaluating the in vitro reconstitution of the fusion protein complex with recombinant proteins produced in Escherichia coli. The reconstitution tests, based on ELISA (Enzyme-Linked Immuno Assay) methods, involve the immobilization of protein SNAP-25 in 96-well plates and the subsequent formation of the fusion protein complex by adding the proteins VAMP and syntaxin in the presence and/or absence of the peptides of the invention. The detection of the complex was performed using an antibody against protein syntaxin (anti-syntaxin), followed by an antibody which recognizes the anti-syntaxin antibody, covalently tagged with a peroxidase. The amount of fusion protein complex was tracked by adding 1,2-phenylenediamine dichloride, whose reaction with the peroxidase produces a product with an orangish-yellow color that absorbs 492 nm in an acid medium.

Row | Molecule | attenuation of hyperhidrosis and excessive sweating ([1]; formulation containing 0.5-1.0% Argireline) | inhibition of the release of catecholamines [2] | amount of fusion complex (SNARE) formed in presence of peptide [3] | attenuation of excessive sweating ([1]; 0.1-0.01%)
1 | Ac-Glu-Glu-Met-Gln-Arg-Arg (Ac-EEMQRR) [Argireline®, acetyl-hexapeptide commercialized under the tradename Argireline® by Lipotec, S. A] | modest effect |  |  | 
2 | SEQ. ID NO. 1: peptide from the amino end of SNAP-25; 6 amino acid peptide whose acetylated derivative is Argireline (EEMQRR) |  | approximately 20% | significant decrease | 
3 | SEQ. ID NO. 2: peptide from the amino end of SNAP-25 (ELEEMQRRADQLA) |  | approximately 35% | significant decrease | 
4 | CCCCCCCCC(=O)OCC(=O)NCc1cc(OC)c(O)cc1I [Calmpasin®, 2-((4-hydroxy-2-iodo-5-methoxybenzyl)amino)-2-oxoethyl nonanoate] |  |  |  | unable to attenuate excessive sweating
